Measurements from ChEMBL document CHEMBL1201862, “PubChem BioAssay data set” (2004).
Active and inactive are the calls of the source. For most assays here, no stated cut-off is given here; in the data, actives have a measured EC50 and inactives only a lower limit.

Key:
[1] = Luminescence Cell-Based Dose Response HTS to Identify Inhibitors of 5'UTR Stem-Loop Driven Prion Protein mRNA Translation in H4 Neuroglioblastoma Cells. [Related pubchem assays: 1827 (Project Summary), 1813 (Primary HTS)]; type: functional
BJ = experiment: cytotoxicity toward Ras-transformed BJeLR fibroblasts, dose response, cell-based, alamar blue fluorescence, cherrypicked samples (AID 2631); type: functional; settings: Homo sapiens;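 further: confirmatory dose-response assay in RAS-dependent BJ fibroblasts engineered with TERT, LT and ST, with cytotoxicity read by fluorescence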
[2] = inhibitors of firefly luciferase expression or activity, dose response, H4 neuroglioma cells, luminescence (AID 1990); type: functional, cell-based
[3] = molecular target: Glucose-6-phosphate 1-dehydrogenase (Homo sapiens, UniProt P11413); experiment: human G6PD enzyme inhibitors, dose response, selectivity assay for P. falciparum G6PD inhibitor project, biochemical, fluorescence (AID 504792); type: functional
Glucose-6-phosphate 1-dehydrogenase, sequence (P11413 whole entry): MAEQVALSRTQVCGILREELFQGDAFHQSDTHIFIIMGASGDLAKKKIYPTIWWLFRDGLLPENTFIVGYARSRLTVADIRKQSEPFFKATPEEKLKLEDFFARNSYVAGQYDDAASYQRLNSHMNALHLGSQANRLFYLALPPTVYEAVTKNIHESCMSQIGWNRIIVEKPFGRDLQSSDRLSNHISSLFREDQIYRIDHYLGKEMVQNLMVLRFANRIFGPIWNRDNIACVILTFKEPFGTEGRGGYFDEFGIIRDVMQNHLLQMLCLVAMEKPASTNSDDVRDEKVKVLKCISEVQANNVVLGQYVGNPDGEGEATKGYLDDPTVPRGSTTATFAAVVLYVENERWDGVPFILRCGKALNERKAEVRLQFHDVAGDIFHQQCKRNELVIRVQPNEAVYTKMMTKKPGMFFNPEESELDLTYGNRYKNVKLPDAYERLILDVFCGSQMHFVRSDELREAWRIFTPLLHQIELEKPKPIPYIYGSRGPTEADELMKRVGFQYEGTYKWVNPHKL

[4] = molecular target: Heat shock protein HSP 90-alpha (Homo sapiens, UniProt P07900); type: functional, organism-based
[5] = cytotoxicity toward DRD oncogenic fibroblasts, dose response, cell-based, non-viral oncogenic, luminescence (AID 1934); type: functional; settings: Homo sapiens

With `CCOC(=O)c1c(C)[nH]c2c1-c1ccccc1C(=O)C2=O` the EC50 [1] was 1350 nM (active), the EC50 (BJ) was 554 nM (inconclusive) and the EC50 [2] was 3020 nM (active).

For `COc1ccc2c(c1)CCC(/C=N/c1ccc3c(c1)OCO3)=C2O`, the IC50 [3] was > 80000 nM (inactive).

With `CC(=O)NC(c1ccc2ccccc2c1)c1ccc2cccnc2c1O` (stereo unspecified) the AC50 [4] was 1980 nM (active) and the EC50 [5] was 6520 nM (active).
